The text below walks through data of the Kinase Knowledgebase extract (Sharma et al. 2016).

In experiment [1] the target is PIK3CA (human) (UniProt P42336). The experiment in a line: Inhibition of A2780 Cell Proliferation.
The target is the same in experiment [2]. The experiment can be described thus: Inhibition of PIK3CA Kinase Activity.

Chain of PIK3CA (human) (P42336 whole entry, looked up): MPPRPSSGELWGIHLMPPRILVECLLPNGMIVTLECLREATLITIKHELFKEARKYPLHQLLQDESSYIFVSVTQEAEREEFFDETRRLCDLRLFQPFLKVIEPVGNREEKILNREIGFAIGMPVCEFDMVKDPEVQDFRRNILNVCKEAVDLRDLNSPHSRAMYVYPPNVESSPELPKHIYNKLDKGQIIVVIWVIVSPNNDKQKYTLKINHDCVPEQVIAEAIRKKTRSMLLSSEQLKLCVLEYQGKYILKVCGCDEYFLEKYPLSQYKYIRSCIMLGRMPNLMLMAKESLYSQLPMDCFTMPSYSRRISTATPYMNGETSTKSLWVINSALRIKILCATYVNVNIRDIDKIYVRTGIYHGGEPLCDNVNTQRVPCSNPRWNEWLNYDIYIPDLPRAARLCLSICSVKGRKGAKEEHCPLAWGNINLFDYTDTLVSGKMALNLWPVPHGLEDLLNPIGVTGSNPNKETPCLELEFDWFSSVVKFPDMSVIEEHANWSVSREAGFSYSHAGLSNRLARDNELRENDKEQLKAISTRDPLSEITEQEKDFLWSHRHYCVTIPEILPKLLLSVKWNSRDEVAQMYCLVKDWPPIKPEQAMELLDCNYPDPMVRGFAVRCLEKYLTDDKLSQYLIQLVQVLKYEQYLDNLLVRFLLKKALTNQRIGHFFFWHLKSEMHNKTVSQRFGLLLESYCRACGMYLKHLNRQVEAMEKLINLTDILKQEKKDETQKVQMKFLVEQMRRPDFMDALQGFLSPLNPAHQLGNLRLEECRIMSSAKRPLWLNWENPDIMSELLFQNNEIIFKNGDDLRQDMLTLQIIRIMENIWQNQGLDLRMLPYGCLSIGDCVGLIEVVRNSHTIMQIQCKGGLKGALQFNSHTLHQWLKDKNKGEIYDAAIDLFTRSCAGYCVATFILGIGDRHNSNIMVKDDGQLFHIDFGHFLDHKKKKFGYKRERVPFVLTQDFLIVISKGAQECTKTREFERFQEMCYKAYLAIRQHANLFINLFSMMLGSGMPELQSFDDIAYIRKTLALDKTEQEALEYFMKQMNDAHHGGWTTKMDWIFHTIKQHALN

`CC(C)(C)OC(=O)NCCCC(=O)Nc1cn2nc(-c3cnc(N)c(C(F)(F)F)c3)ccc2n1`: on PIK3CA (human) [1], the concentration for a half-maximal effect (EC50) (commonly the concentration giving half of the maximal effect) is < 1 µM. Further, the concentration for half-maximal inhibition (IC50) (in general, the concentration at which inhibition is half-maximal) at PIK3CA (human) [2] was < 1 µM.

As to `CC(=O)Nc1cn2cc(-c3cnc(N)c(-c4ccccc4C(F)(F)F)c3)ccc2n1`, the EC50 on PIK3CA (human) [1] is < 10 µM. Moreover, at PIK3CA (human) [2], the IC50 was < 1 µM. On the same counts, the results for `CC(=O)Nc1cn2nc(-c3cnc(N)c(C(=O)NCCO)c3)ccc2n1` are < 25 µM and < 1 µM.

`CC(C)(C(=O)Nc1cn2cc(-c3cnc(N)c(C(F)(F)F)c3)ccc2n1)c1ccccc1`: the concentration for a half-maximal effect (EC50) on PIK3CA (human) [1] is < 25 µM. Further, at PIK3CA (human) [2], the 50% inhibitory concentration (IC50) was < 10 µM. Turning to `CC(=O)Nc1cn2nc(-c3cnc(N)c(-c4ccccc4Oc4ccccc4)c3)ccc2n1`, the EC50 at PIK3CA (human) [1] was < 10 µM. At PIK3CA (human) [2], the IC50 was < 1 µM. On the same counts, the results for `CC(C)(C)OC(=O)N1CC[C@H](OCC(=O)Nc2cn3nc(-c4cnc(N)c(C(F)(F)F)c4)ccc3n2)C1` are < 1 µM and < 1 µM. For `CC(=O)Nc1cn2cc(-c3cnc(N)c(Oc4ccc(F)cc4)n3)ccc2n1`, in that order: < 1 µM and < 1 µM. On the same counts, the results for `CN(CC(=O)Nc1cn2cc(-c3cnc(N)c(C(F)(F)F)c3)ccc2n1)C(=O)OC(C)(C)C` are < 10 µM and < 1 µM. For the compound `C=Cc1c(NC(C)=O)nc2ccc(-c3cnc(N)c(C(F)(F)F)c3)cn12`, on PIK3CA (human) [1], the EC50 was < 25 µM. Besides, the IC50 against PIK3CA (human) [2] was < 1 µM. On to `CC(C)C(=O)Nc1cn2cc(-c3cnc(N)c(OCC(F)(F)F)n3)ccc2n1`, for which the EC50 at PIK3CA (human) [1] is < 10 µM. Also, the IC50 against PIK3CA (human) [2] was < 1 µM. As for `CC(=O)Nc1cn2cc(-c3cnc(N)c(N4CCOCC4)n3)ccc2n1`, on PIK3CA (human) [1], the EC50 is < 10 µM. At PIK3CA (human) [2], the IC50 was < 1 µM.

Regarding `COCC(=O)Nc1cn2nc(-c3cnc(N)c(C(F)(F)F)c3)ccc2n1`, on PIK3CA (human) [1], the concentration giving a half-maximal response (EC50) is < 1 µM. On PIK3CA (human) [2], the half-inhibitory concentration (IC50) is < 1 µM. For `CC(=O)Nc1cn2nc(-c3cnc(N)c(C(=O)NCCN4CCCC4)c3)ccc2n1`, at PIK3CA (human) [1], the EC50 is < 10 µM. Further, the IC50 against PIK3CA (human) [2] is < 1 µM. As for `Nc1ncc(-c2ccc3nc(NC(=O)N4CC[C@H](O)C4)cn3c2)cc1C(F)(F)F`, the EC50 at PIK3CA (human) [1] was < 10 µM. Moreover, the IC50 against PIK3CA (human) [2] is < 1 µM.

As for `CC(=O)Nc1cn2nc(-c3cnc(N)c(-c4cccc(C(F)(F)F)c4)c3)ccc2n1`, the half-maximal effective concentration (EC50) on PIK3CA (human) [1] was < 10 µM. Besides, the half-maximal inhibitory concentration (IC50) against PIK3CA (human) [2] is < 1 µM.

In the case of `CC(=O)Nc1nc2ccc(-c3cnc(N)c(C(F)(F)F)c3)cn2c1CCc1ccccc1`, the concentration for a half-maximal effect (EC50) on PIK3CA (human) [1] is < 10 µM. Further, on PIK3CA (human) [2], the IC50 was < 1 µM. On the same counts, the results for `Nc1ncc(-c2ccc3nc(NC(=O)CO[C@@H]4CCNC4)cn3n2)cc1C(F)(F)F` are < 1 µM and < 1 µM.

As for `COCCOc1nc(-c2ccc3nc(NC(C)=O)cn3n2)cnc1N`, the half-maximal effective concentration (EC50) at PIK3CA (human) [1] was < 10 µM. Still for that read-out and setting: then `CC(C)(C)OC(=O)N1CCC1C(=O)Nc1cn2nc(-c3cnc(N)c(C(F)(F)F)c3)ccc2n1` (stereo not given), with < 25 µM.

Turning to `CNC(=O)[C@@H]1CCCN1C(=O)Nc1cn2cc(-c3cnc(N)c(C(F)(F)F)c3)ccc2n1`, the EC50 on PIK3CA (human) [1] is < 25 µM. Still for that read-out and setting: then `CC(C)C(=O)Nc1cn2cc(-c3cnc(N)c(C(F)(F)F)c3)ccc2n1`, with < 25 µM; and `Nc1ncc(-c2ccc3nc(NC(=O)[C@@H]4CCCCN4)cn3c2)cc1C(F)(F)F`, with < 10 µM; and `NC(=O)[C@@H]1CCCN1C(=O)Nc1cn2cc(-c3cnc(N)c(C(F)(F)F)c3)ccc2n1`, with < 10 µM. Same read-out and setting: in the case of `CCN1CCC(Oc2nc(-c3ccc4nc(NC(C)=O)cn4c3)cnc2N)CC1` it was < 10 µM; in that of `CC(=O)N1CCCC[C@H]1C(=O)Nc1cn2cc(-c3cnc(N)c(C(F)(F)F)c3)ccc2n1`, < 25 µM. The same measure, in the same setting: then `CC(=O)Nc1cn2cc(-c3cnc(N)c(OC4CCNCC4)n3)ccc2n1`, with < 25 µM. For the compound `CC(=O)Nc1cn2nc(-c3cnc(N)c(OCC(F)(F)F)n3)ccc2n1`, at PIK3CA (human) [1], the EC50 is < 10 µM.

For `Nc1cc(C(=O)Nc2nc3ccc(-c4cnc(N)c(C(F)(F)F)c4)cc3s2)ccn1`, the half-inhibitory concentration (IC50) on PIK3CA (human) [2] was < 1 µM.
